Experimental findings from paper PMC6900016, “Synthesis of Indomorphan Pseudo‐Natural Product Inhibitors of Glucose Transporters GLUT‐1 and ‐3” (Angewandte Chemie (International Ed. in English), 2019) are described below.

Holding throughout (experiment): cells
Holding throughout (set-up): Cell growth inhibition, sulforhodamine B total protein staining

One assay relates to KASUMI1. The conditions noted are these: Homo sapiens, Kasumi 1; 72 h growth; read-out: Cell growth inhibition IC50/µM. The method, boiled down: (§1)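 72 h exposure of a 94-cell-line panel to Glupin; growth measured by sulforhodamine B total-protein staining after TCA fixation (10% adherent, 50% suspension/semi-adherent, 1 h at 4 °C). IC50 derived from growth inhibition.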
The test system of another assay is BT20. The conditions noted are these: Homo sapiens, BT-20; 72 h growth; read-out: Cell growth inhibition IC50/µM. The method in brief: as §1
For another assay, the system named is J82. The following applies: Homo sapiens, J82; 72 h growth; read-out: Cell growth inhibition IC50/µM. The method, boiled down: as §1
Another assay concerns HEK293. The following applies: Homo sapiens, HEK293; 72 h growth; read-out: Cell growth inhibition IC50/µM. The method in brief: as §1
For the next assay, the system named is CALU6. The following applies: Homo sapiens, Calu-6; 72 h growth; read-out: Cell growth inhibition IC50/µM. The method in brief: as §1
Another assay relates to CAKI1. The conditions noted are these: Homo sapiens, CAKI-1; 72 h growth; read-out: Cell growth inhibition IC50/µM. The method in brief: as §1
In the next assay the test system is MDAMB231. The following applies: Homo sapiens, MDA-MB-231; 72 h growth; read-out: Cell growth inhibition IC50/µM. The method, boiled down: as §1
The next assay concerns HCT15. The following applies: Homo sapiens, HCT-15; 72 h growth; read-out: Cell growth inhibition IC50/µM. The method in brief:
as §1

The test system of a further assay is EJ28. The conditions noted are these: Homo sapiens, EJ-28; 72 h growth; read-out: Cell growth inhibition IC50/µM. The method, boiled down:
as §1

Another assay relates to LOVO. The following applies: Homo sapiens, LoVo; 72 h growth; read-out: Cell growth inhibition IC50/µM. The method, boiled down: as §1
Another assay deals with NCIH292. The conditions noted are these: Homo sapiens, NCI-H292; 72 h growth; read-out: Cell growth inhibition IC50/µM. The method in brief: as §1
Another assay deals with THP1. The following applies: Homo sapiens, THP-1; 72 h growth; read-out: Cell growth inhibition IC50/µM. The method, boiled down:
as §1

The next assay concerns L363. The conditions noted are these: Homo sapiens, L-363; 72 h growth; read-out: Cell growth inhibition IC50/µM. The method in brief: as §1
A further assay concerns SKLMS1. The conditions noted are these: Homo sapiens, SK-LMS-1; 72 h growth; read-out: Cell growth inhibition IC50/µM. The method in brief:
as §1

The next assay deals with WSUNHL. The conditions noted are these: Homo sapiens, WSU-NHL; 72 h growth; read-out: Cell growth inhibition IC50/µM. The method in brief: as §1
A further assay deals with MINO. The conditions noted are these: Homo sapiens, MINO; 72 h growth; read-out: Cell growth inhibition IC50/µM. The method, boiled down: as §1
In another assay the test system is PANC1. The conditions noted are these: Homo sapiens, PANC-1; 72 h growth; read-out: Cell growth inhibition IC50/µM. The method, boiled down: as §1
For the next assay, the system named is HCT116. The following applies: Homo sapiens, HCT-116; 72 h growth; read-out: Cell growth inhibition IC50/µM. The method, boiled down: as §1
Another assay relates to PC3. The following applies: Homo sapiens, PC-3; 72 h growth; read-out: Cell growth inhibition IC50/µM. The method in brief:
as §1

The subject of another assay is JEG3. The following applies: Homo sapiens, JEG-3; 72 h growth; read-out: Cell growth inhibition IC50/µM. The method, boiled down: as §1

On to `CCOC(=O)Cn1c2c(c3ccccc31)C[C@@H]1C[C@H]2C(OC)CN1C(=O)c1cccnc1SC` (single isomer, unassigned; (+)) [(+)-5a, Glupin], for which the IC50 in the assay with KASUMI1 was greater than 30 µM; with BT20 it was greater than 30 µM; with J82 it was 7.25 µM; in the assay with HEK293, 0.463 µM; with CALU6, 0.538 µM; in the assay with CAKI1 it was 0.805 µM. The IC50 with MDAMB231 was 8.38 µM; in the assay with HCT15 it was 0.407 µM; in the assay with EJ28 it was 1.39 µM; in the assay on LOVO, 5.41 µM; with NCIH292 it was greater than 30 µM; in the assay with THP1 it was greater than 30 µM. Moreover, the IC50 in the assay with L363 amounted to 2.87 µM; in the assay with SKLMS1, 0.699 µM; with WSUNHL, 0.062 µM; in the assay on MINO, 1.77 µM; in the assay on PANC1, 0.706 µM; in the assay on HCT116, 1.47 µM. In addition, the IC50 was 0.827 µM in the assay with PC3 and 0.933 µM in the assay on JEG3.
